Experimental data taken from ChEMBL document CHEMBL1201862, “PubChem BioAssay data set” (2004).
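Values below derive from 48-hour exposures of cells grown in 96-well plates, with endpoints linearly interpolated between the two concentrations bracketing the appropriate inhibition level. Abbreviation: GI50, concentration required for 50% inhibition of growth.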 Active and inactive are the calls of the source. Rule as the data show it: active = GI50 up to about 1.1 µM and inactive = higher.

Legend:
Experiment in all cases: inhibition of tumour cell growth, NCI panel, 48 h
HCC 2998 = tested on: HCC 2998
OVCAR-4 = tested on: OVCAR-4
ACHN = tested on: ACHN
MOLT-4 = tested on: MOLT-4
786-0 = tested on: 786-0
M14 = tested on: M14
SF-268 = tested on: SF-268
CCRF-CEM = tested on: CCRF-CEM
HT-29 = tested on: HT-29
OVCAR-8 = tested on: OVCAR-8
HCT-15 = tested on: HCT-15
HCT-116 = tested on: HCT-116
EKVX = tested on: EKVX
UO-31 = tested on: UO-31
SR = tested on: SR
SK-MEL-5 = tested on: SK-MEL-5
SW-620 = tested on: SW-620
RPMI-8226 = tested on: RPMI-8226
SK-OV-3 = tested on: SK-OV-3
HOP-92 = tested on: HOP-92

| SMILES | GI50 (HCC 2998) | GI50 (OVCAR-4) | GI50 (ACHN) | GI50 (MOLT-4) | GI50 (786-0) | GI50 (M14) | GI50 (SF-268) | GI50 (CCRF-CEM) | GI50 (HT-29) | GI50 (OVCAR-8) | GI50 (HCT-15) | GI50 (HCT-116) | GI50 (EKVX) | GI50 (UO-31) | GI50 (SR) | GI50 (SK-MEL-5) | GI50 (SW-620) | GI50 (RPMI-8226) | GI50 (SK-OV-3) | GI50 (HOP-92) |
| --- | --- | --- | --- | --- | --- | --- | --- | --- | --- | --- | --- | --- | --- | --- | --- | --- | --- | --- | --- | --- |
| O=C1c2ccccc2C(=O)c2[nH]cnc21 | 48.4 µM (inactive) | 76.6 µM (inactive) | 66.7 µM (inactive) | 49.5 µM (inactive) | 75.9 µM (inactive) | 41.4 µM (inactive) | 93.1 µM (inactive) | 49.9 µM (inactive) | 33.5 µM (inactive) | 34.7 µM (inactive) | 48.5 µM | 45.4 µM (inactive) | 91.2 µM (inactive) | > 100 µM (inactive) | 44 µM (inactive) | 18.1 µM (inactive) |  |  |  |  |
| Nc1nc(-c2ccco2)cc(-c2ccc(CO)o2)n1 |  | > 100 µM (inactive) | > 100 µM (inactive) | > 100 µM (inactive) | > 100 µM (inactive) | > 100 µM (inactive) | > 100 µM (inactive) | 76.4 µM (inactive) | > 100 µM (inactive) | > 100 µM (inactive) | > 100 µM | > 100 µM (inactive) | > 100 µM (inactive) | 60.3 µM (inactive) | > 100 µM (inactive) | > 100 µM (inactive) | > 100 µM (inactive) | 41.4 µM (inactive) |  |  |
| COC(=O)c1ccc2c(c1)S/C(=C/c1ccc3ccc4cccc5ccc1c3c45)S2 | 89.3 µM (inactive) | 41.4 µM (inactive) | > 100 µM (inactive) | > 100 µM (inactive) | > 100 µM (inactive) | 32.1 µM (inactive) | 32.1 µM (inactive) | 34.5 µM (inactive) | > 100 µM (inactive) | 31.6 µM (inactive) | 28.1 µM | 95.9 µM (inactive) | > 100 µM (inactive) | > 100 µM (inactive) |  | > 100 µM (inactive) | 27.6 µM (inactive) | 38.3 µM (inactive) | > 100 µM (inactive) | 43.5 µM (inactive) |
| N=C(N)c1ccc(/C=C/c2ccc(C(=N)N)cc2)cc1 | 90.8 µM (inactive) | > 100 µM (inactive) | > 100 µM (inactive) | > 100 µM (inactive) | 62.1 µM (inactive) | > 100 µM (inactive) | > 100 µM (inactive) | > 100 µM (inactive) | 93.1 µM (inactive) | 85.7 µM (inactive) | > 100 µM | > 100 µM (inactive) | 46.3 µM (inactive) | > 100 µM (inactive) | > 100 µM (inactive) | 29.1 µM (inactive) | 96.8 µM (inactive) |  |  | > 100 µM (inactive) |
| O=C(CC1(O)C(=O)Nc2c(Cl)cc(Cl)cc21)c1cccc2ccccc12 (stereo not given) |  | 12.4 µM (inactive) | 17.1 µM (inactive) | 20 µM (inactive) | 15.8 µM (inactive) | 16.7 µM (inactive) | 21.4 µM (inactive) | 17.8 µM (inactive) | 19.6 µM (inactive) | 18.1 µM (inactive) | 16.5 µM | 15.2 µM (inactive) | 16 µM (inactive) |  | 16.9 µM (inactive) | 15.2 µM (inactive) | 16 µM (inactive) | 19.6 µM (inactive) | 16.6 µM (inactive) |  |
| O=C1C[C@@H]2[C@@H](c3ccccc3)[C@@H]3C(=O)c4ccccc4NC(=O)[C@H]3[C@]2(O)c2ccccc2N1 |  | > 100 µM (inactive) | > 100 µM (inactive) | > 100 µM (inactive) | > 100 µM (inactive) | > 100 µM (inactive) | > 100 µM (inactive) | > 100 µM (inactive) | > 100 µM (inactive) | > 100 µM (inactive) | > 100 µM | > 100 µM (inactive) | > 100 µM (inactive) | > 100 µM (inactive) | > 100 µM (inactive) | > 100 µM (inactive) | > 100 µM (inactive) | > 100 µM (inactive) |  |  |
| CC1CCc2c(sc3ncnc(N/N=C/c4ccc(Cl)c(Cl)c4)c23)C1 (stereo not given) | 23.6 µM (inactive) |  | 5.38 µM (inactive) | 7.4 µM (inactive) | 15.6 µM (inactive) | 14.3 µM (inactive) | 13.3 µM (inactive) | 4.3 µM (inactive) | 13.6 µM (inactive) | 17.9 µM (inactive) | 9.73 µM | 4.55 µM (inactive) | 25 µM (inactive) | 12.2 µM (inactive) | 4.83 µM (inactive) | 16.7 µM (inactive) | 6.07 µM (inactive) | 13.2 µM (inactive) | 25.2 µM (inactive) |  |
| N#Cc1cc([N+](=O)[O-])ccc1NC(=O)C(=O)Nc1n[nH]c(N)n1 | > 100 µM (inactive) | > 100 µM (inactive) | > 100 µM (inactive) | > 100 µM (inactive) | > 100 µM (inactive) | > 100 µM (inactive) | > 100 µM (inactive) | > 100 µM (inactive) | > 100 µM (inactive) | > 100 µM (inactive) | > 100 µM | > 100 µM (inactive) | > 100 µM (inactive) | > 100 µM (inactive) |  | > 100 µM (inactive) | > 100 µM (inactive) | > 100 µM (inactive) | > 100 µM (inactive) | > 100 µM (inactive) |
| Cc1cccc(-n2c(C)nc3ccc(NC4OC(CO)C(O)C(O)C4O)cc3c2=O)c1 (stereo not given) | > 100 µM (inactive) | > 100 µM (inactive) | > 100 µM (inactive) | > 100 µM (inactive) | > 100 µM (inactive) |  | > 100 µM (inactive) |  | > 100 µM (inactive) | > 100 µM (inactive) | > 100 µM | > 100 µM (inactive) | > 100 µM (inactive) | > 100 µM (inactive) | 50.7 µM (inactive) | > 100 µM (inactive) | > 100 µM (inactive) | > 100 µM (inactive) |  |  |
| CCN(CC)c1c(C(C)(C)C)c(=O)n2ccsc2c1OC(C)=O | 17.4 µM (inactive) | 15.2 µM (inactive) | 16.2 µM (inactive) | 17.8 µM (inactive) | 19.9 µM (inactive) | 17.3 µM (inactive) | 15.2 µM (inactive) | 49 µM (inactive) | 14.8 µM (inactive) | 15 µM (inactive) | 16.5 µM | 13.6 µM (inactive) | 15.1 µM (inactive) | 17.9 µM (inactive) |  | 18.1 µM (inactive) | 16.9 µM (inactive) | 13.8 µM (inactive) | 18.2 µM (inactive) | 17.4 µM (inactive) |
| COc1cc([C@@H]2c3cc4c(cc3[C@@H](NCc3ccccc3F)C3COC(=O)[C@@H]32)OCO4)cc(OC)c1O (stereo not given in full) | 11.8 µM (inactive) | 16.6 µM (inactive) | 1.11 µM (active) | 0.425 µM (active) | 2.81 µM (inactive) | 3.01 µM (inactive) | 4.69 µM (inactive) | 1.49 µM (inactive) | 4.78 µM (inactive) | 6.03 µM (inactive) | 1.63 µM | 5.27 µM (inactive) | 10.7 µM (inactive) | 4.05 µM (inactive) |  | 0.828 µM (active) | 0.851 µM (active) | 1.93 µM (inactive) | 2.58 µM (inactive) | 4.04 µM (inactive) |
